The text below walks through data of US8633196B2, “Benzenesulfonamide compounds, method for synthesizing same, and use thereof in medicine as well as in cosmetics” (Galderma Research & Development, priority 2009, dated 2014).

pIC50: −log10 of the molar value. Like-named read-outs stand apart in the source and are kept apart here.

In general, pIC50 refers to the IC50 on a negative log10 scale, so that one unit is a factor of ten. Broadly, the IC50 is the midpoint of a concentration-inhibition curve.

Experiment [1] addresses T1, TACE enzyme (Homo sapiens (Human), UniProt P78536). The experiment is described as follows: Enzymatic assay for TACE inhibition (fluorescent substrate). The experiment is classed as biochemical.
Target sequence in this assay (P78536 215-824 limits assumed): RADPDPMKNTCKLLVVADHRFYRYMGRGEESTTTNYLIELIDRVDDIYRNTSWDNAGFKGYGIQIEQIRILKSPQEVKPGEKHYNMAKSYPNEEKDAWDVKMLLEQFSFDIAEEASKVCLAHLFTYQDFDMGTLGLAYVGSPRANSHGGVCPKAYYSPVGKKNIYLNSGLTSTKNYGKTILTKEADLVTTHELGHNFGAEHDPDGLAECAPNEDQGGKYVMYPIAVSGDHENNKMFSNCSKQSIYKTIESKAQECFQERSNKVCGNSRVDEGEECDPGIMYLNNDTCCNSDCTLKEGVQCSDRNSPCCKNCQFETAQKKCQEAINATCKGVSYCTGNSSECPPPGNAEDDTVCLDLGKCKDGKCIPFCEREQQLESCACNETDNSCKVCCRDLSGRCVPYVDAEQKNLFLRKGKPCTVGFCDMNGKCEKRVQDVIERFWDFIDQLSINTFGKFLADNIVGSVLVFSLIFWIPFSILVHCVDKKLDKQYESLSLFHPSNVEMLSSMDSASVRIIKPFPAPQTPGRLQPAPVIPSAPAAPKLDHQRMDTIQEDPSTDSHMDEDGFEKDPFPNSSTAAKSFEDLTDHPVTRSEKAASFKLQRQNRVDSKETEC
The next experiment addresses ADAM10 (Homo sapiens (Human), UniProt O14672). In words: Selectivity assay, ADAM10.
The next experiment has as its target MMP9 (Homo sapiens (Human), UniProt P14780). The experiment is described as follows: Selectivity assay, MMP9. The experiment is classed as biochemical.
A further experiment has as its target MMP1 (Homo sapiens (Human), UniProt P03956). The experiment is described as follows: Selectivity assay, MMP1. The experiment is classed as biochemical.
A further experiment deals with MMP3 (Homo sapiens (Human), UniProt P08254). The experiment is described as follows: Selectivity assay, MMP3. The experiment is classed as biochemical.
The target in the next experiment is ADAM9 (Homo sapiens (Human), UniProt Q13443). The experiment is described as follows: Selectivity assay, ADAM9. The experiment is classed as biochemical.
Experiment [2] addresses T1, TACE enzyme. The note with it: WO 00/44709; page 251, table 10, example 61; cited from earlier work.
Target sequence in this assay (P78536 whole entry, looked up): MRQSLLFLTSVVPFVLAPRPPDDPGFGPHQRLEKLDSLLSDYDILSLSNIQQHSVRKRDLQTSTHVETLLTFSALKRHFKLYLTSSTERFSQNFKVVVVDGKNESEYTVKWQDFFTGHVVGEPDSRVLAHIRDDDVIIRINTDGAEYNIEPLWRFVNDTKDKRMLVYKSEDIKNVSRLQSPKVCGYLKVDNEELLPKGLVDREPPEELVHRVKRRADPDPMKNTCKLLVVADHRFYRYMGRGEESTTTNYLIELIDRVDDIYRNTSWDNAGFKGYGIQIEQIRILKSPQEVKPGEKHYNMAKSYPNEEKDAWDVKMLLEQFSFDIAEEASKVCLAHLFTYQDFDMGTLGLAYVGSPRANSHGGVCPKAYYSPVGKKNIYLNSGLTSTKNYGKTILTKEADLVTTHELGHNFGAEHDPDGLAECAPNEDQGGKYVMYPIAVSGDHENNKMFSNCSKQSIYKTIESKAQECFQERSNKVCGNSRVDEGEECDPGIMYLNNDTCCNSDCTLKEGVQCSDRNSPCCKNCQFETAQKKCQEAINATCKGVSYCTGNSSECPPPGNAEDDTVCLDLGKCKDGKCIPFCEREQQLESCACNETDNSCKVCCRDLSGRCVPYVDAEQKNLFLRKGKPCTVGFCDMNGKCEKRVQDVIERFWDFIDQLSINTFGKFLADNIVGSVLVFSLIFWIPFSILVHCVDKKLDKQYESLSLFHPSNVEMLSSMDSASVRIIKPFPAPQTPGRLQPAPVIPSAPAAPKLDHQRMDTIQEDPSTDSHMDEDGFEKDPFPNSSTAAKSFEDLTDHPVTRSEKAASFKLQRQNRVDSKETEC
The mark [3] stands for this setting: enzymatic assay, substrate 40 μM; read-out: IC50-TACE.
Where [4] appears, read: TACE column of selectivity table; read-out: IC50 (nM) TACE.

ADAM9, sequence (Q13443 29-819, species assumed): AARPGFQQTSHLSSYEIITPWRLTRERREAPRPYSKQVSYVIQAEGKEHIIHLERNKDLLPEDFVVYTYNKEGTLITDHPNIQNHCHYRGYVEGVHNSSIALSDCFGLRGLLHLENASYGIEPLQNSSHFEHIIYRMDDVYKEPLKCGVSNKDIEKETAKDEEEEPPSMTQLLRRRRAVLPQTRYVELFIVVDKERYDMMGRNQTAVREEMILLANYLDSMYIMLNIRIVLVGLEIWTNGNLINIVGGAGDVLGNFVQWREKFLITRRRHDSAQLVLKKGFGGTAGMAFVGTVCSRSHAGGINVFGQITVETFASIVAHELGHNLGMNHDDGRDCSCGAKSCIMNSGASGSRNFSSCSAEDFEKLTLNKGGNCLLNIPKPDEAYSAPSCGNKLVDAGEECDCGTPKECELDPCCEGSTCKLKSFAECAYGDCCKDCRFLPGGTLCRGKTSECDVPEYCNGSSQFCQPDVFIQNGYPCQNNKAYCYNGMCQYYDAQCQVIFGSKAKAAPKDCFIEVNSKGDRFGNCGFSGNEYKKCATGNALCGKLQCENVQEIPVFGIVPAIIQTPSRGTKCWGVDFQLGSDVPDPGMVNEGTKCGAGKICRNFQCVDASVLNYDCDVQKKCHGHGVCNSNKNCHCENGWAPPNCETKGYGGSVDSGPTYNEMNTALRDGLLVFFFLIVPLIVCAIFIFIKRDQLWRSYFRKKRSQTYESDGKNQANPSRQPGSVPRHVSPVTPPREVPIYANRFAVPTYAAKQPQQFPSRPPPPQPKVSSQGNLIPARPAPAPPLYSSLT
MMP9, sequence (P14780 94-707, species assumed): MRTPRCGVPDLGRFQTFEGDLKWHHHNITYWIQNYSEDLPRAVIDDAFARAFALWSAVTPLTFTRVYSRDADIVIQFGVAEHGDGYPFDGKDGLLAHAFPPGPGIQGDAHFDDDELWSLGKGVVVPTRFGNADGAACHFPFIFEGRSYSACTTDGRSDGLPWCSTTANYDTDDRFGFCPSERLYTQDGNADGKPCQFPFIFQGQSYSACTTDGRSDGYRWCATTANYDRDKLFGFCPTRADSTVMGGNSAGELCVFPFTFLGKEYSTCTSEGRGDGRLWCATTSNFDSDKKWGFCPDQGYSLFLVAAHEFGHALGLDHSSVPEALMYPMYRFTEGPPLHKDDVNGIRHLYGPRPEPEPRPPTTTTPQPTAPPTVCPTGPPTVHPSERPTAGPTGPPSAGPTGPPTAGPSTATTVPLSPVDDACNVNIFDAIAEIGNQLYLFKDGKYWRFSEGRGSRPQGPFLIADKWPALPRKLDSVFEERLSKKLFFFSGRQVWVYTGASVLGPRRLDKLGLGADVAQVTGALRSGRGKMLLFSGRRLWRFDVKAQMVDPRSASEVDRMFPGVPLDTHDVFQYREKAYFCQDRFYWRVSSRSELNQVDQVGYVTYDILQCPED
MMP1, sequence (P03956 100-469, species assumed): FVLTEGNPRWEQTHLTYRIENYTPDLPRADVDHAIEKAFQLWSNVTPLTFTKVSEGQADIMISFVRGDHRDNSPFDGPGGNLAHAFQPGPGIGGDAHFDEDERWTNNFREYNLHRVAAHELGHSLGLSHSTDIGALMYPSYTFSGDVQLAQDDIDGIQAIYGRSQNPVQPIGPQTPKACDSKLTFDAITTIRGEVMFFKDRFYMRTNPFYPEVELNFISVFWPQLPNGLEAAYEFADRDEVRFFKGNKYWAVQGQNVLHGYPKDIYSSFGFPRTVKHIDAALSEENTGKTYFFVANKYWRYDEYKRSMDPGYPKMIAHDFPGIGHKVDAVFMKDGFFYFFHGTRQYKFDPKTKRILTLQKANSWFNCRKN
MMP3, sequence (P08254 100-477, species assumed): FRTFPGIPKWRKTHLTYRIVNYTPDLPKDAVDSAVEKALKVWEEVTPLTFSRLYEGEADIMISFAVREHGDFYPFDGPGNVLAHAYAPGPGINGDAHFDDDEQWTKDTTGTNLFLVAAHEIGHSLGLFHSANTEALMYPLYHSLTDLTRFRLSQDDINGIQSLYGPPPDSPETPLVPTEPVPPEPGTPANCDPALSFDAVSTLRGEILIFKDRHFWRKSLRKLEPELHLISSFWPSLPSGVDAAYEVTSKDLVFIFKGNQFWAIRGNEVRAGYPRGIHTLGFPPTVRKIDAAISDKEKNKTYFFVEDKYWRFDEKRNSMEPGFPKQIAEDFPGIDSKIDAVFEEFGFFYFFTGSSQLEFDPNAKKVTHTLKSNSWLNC
ADAM10, sequence (O14672 214-748, species assumed): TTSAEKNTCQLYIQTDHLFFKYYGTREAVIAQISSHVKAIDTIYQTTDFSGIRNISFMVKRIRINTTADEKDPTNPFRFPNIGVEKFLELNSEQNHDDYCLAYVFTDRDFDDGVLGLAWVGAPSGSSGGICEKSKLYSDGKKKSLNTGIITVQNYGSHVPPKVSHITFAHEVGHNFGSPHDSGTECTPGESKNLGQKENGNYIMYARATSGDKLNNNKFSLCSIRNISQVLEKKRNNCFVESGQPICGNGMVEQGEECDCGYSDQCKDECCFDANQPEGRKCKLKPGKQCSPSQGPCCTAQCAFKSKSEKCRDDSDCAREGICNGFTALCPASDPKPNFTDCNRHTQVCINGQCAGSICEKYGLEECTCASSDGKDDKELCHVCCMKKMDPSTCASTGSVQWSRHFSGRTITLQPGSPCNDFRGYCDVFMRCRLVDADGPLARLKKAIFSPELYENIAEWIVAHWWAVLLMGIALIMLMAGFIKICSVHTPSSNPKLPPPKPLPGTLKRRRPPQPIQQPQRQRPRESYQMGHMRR

Consider `CC#CCOc1ccc(S(=O)(=O)NC[C@@H](C(=O)NO)N2CCN(S(C)(=O)=O)CC2)cc1` [Example 2, (S)-3-(4-but-2-ynyloxybenzenesulfonylamino)-N-hydroxy-2-(4-methanesulfonylpiperazin-1-yl)propionamide], for which the “% TACE inhibition at 10 μM” value at TACE enzyme [1] (at 10 μM) came out at 100%. Besides, on TACE enzyme [1] (setting [3]), the pIC50 was 7.49.

With `CCN1CCN([C@@H](CNS(=O)(=O)c2ccc(OCc3cc(C)nc4ccccc34)cc2)C(=O)NO)CC1` [Example 19, (S)-2-(4-ethyl-piperazin-1-yl)-N-hydroxy-3-[4-(2-methylquinolin-4-yl-methoxy)benzenesulfonylamino]propionamide], the IC50 on TACE enzyme [1] (setting [4]) was 41 nM; against MMP9, over 10000 nM; against MMP1, 2300 nM; at MMP3, 1770 nM; at ADAM9, 3050 nM. Further, the “% TACE inhibition at 10 μM” value on TACE enzyme [1] (at 10 μM) was determined as 92%. Moreover, the negative logarithm of the IC50 (pIC50) at TACE enzyme [1] (setting [3]) is 7.39; against ADAM10 it was under 5.00.

For the compound `CS(=O)(=O)N1CCN([C@@H](CNS(=O)(=O)c2ccc(OCc3cccc4ccccc34)cc2)C(=O)NO)CC1` [Example 6, (S)-N-Hydroxy-2-(4-methanesulfonylpiperazin-1-yl)-3-[4-(naphthalen-1-ylmethoxy)benzenesulfonylamino]propionamide], the “% TACE inhibition at 10 μM” value at TACE enzyme [1] (at 10 μM) was 99%. Further, the pIC50 at TACE enzyme [1] (setting [3]) was 7.28.

Consider `Cc1cc(COc2ccc(S(=O)(=O)NC[C@@H](C(=O)NO)N3CCN(S(C)(=O)=O)CC3)cc2)c2ccccc2n1.Cl` [Example 14, (S)-N-Hydroxy-2-(4-methanesulfonylpiperazin-1-yl)-3-[4-(2-methylquinolin-4-ylmethoxy)benzenesulfonylamino]propionamide hydrochloride], for which the “% TACE inhibition at 10 μM” value on TACE enzyme [1] (at 10 μM) is reported as 98%. The pIC50 at TACE enzyme [1] (read-out: IC50-TACE; enzymatic assay, substrate 40 μM; listed as ex14, hydrochloride) was 7.19.

As to `CS(=O)(=O)N1CCN([C@@H](CNS(=O)(=O)c2ccc(OCc3cccc(C#N)c3)cc2)C(=O)NO)CC1` [Example 8, (S)-3-[4-(3-Cyanobenzyloxy)benzenesulfonylamino]-N-hydroxy-2-(4-methanesulfonylpiperazin-1-yl)propionamide], the “% TACE inhibition at 10 μM” value at TACE enzyme [1] (at 10 μM) is 100%. The pIC50 on TACE enzyme [1] (setting [3]) was 6.90.

As to `Cc1cc(COc2ccc(S(=O)(=O)NC[C@@H](C(=O)NO)N3CCN(Cc4ccc(F)cc4)CC3)cc2)c2ccccc2n1` [Example 18, (S)-2-[4-(4-Fluorobenzyl)piperazin-1-yl]-N-hydroxy-3-[4-(2-methylquinolin-4-ylmethoxy)benzenesulfonylamino]propionamide], the IC50 on TACE enzyme [1] (setting [4]) is 67 nM; against MMP9 it was over 10000 nM; against MMP1 it was 670 nM; on MMP3, 849 nM; against ADAM9 it was 9250 nM. The “% TACE inhibition at 10 μM” value at TACE enzyme [1] (at 10 μM) was determined as 90%. Further, the negative-log IC50 (pIC50) was 7.17 on TACE enzyme [1] (setting [3]) and under 5.00 at ADAM10.

For the compound `Cc1cc(COc2ccc(S(=O)(=O)NC[C@@H](C(=O)NO)N3CCN(C(=O)C(C)C)CC3)cc2)c2ccccc2n1` [Example 23, (S)-N-hydroxy-2-(4-isobutyrylpiperazin-1-yl)-3-[4-(2-methylquinolin-4-ylmethoxy)-benzenesulfonylamino]propionamide], the IC50 was 53 nM on TACE enzyme [1] (setting [4]), 2220 nM on MMP1 and 1060 nM against MMP3. For the same compound, on TACE enzyme [1] (at 10 μM), the “% TACE inhibition at 10 μM” value turned out to be 97%. Besides, the pIC50 on TACE enzyme [1] (setting [3]) is 7.28.

For `CS(=O)(=O)N1CCN([C@@H](CNS(=O)(=O)c2ccc(OCc3ccnc4ccccc34)cc2)C(=O)NO)CC1` [Example 16, (S)-N-Hydroxy-2-(4-methanesulfonylpiperazin-1-yl)-3-[4-(quinolin-4-ylmethoxy)benzenesulfonylamino]propionamide], on TACE enzyme [1] (at 10 μM), the “% TACE inhibition at 10 μM” value stood at 96%. Besides, the pIC50 at TACE enzyme [1] (setting [3]) was 6.77.

Turning to `CC1(C)SCCN(S(=O)(=O)c2ccc(OCC#CCO)cc2)[C@H]1C(=O)NO` [Apratastat, reference compound], the IC50 on TACE enzyme [1] (read-out: IC50 (nM) TACE; TACE column of selectivity table) was found to be 5 nM; against MMP9, 82 nM; against MMP1 it was 145 nM; on MMP3, 10 nM; on ADAM9 it was 85 nM. For the same compound, the pIC50 on ADAM10 is 7.15. The “selectivity for the TACE enzyme compared with certain MMPs” value at TACE enzyme [2] is on record as “not selective”.

Turning to `Cc1cc(COc2ccc(S(=O)(=O)NC[C@@H](C(=O)NO)N3CCN(C(=O)OCc4ccccc4)CC3)cc2)c2ccccc2n1` [Example 10, Benzyl 4-{(S)-1-hydroxycarbamoyl-2-[4-(2-methylquinolin-4-ylmethoxy)benzenesulfonylamino]ethyl}piperazine-1-carboxylate], on TACE enzyme [1] (at 10 μM), the “% TACE inhibition at 10 μM” value turned out to be 93%.

For the compound `Cc1cc(COc2ccc(S(=O)(=O)NC[C@@H](C(=O)NO)N3CCN(S(=O)(=O)C(C)C)CC3)cc2)c2ccccc2n1` [Example 26, (S)-N-hydroxy-3-[4-(2-methylquinolin-4-ylmethoxy)benzenesulfonylamino]-2-[4-(propane-2-sulfonyl)piperazin-1-yl]propionamide], the results for the IC50 at TACE enzyme [1] (setting [4]), against MMP1 and against MMP3 were 16 nM, 969 nM and 574 nM, respectively. The “% TACE inhibition at 10 μM” value on TACE enzyme [1] (at 10 μM) came out at 98%. The pIC50 on TACE enzyme [1] (setting [3]) is 7.48.

Regarding `Cc1ccc(CN2CCN([C@@H](CNS(=O)(=O)c3ccc(OCc4cc(C)nc5ccccc45)cc3)C(=O)NO)CC2)cc1` [Example 21, (S)-N-hydroxy-2-[4-(4-methylbenzyl)piperazin-1-yl]-3-[4-(2-methylquinolin-4-ylmethoxy)benzenesulfonylamino]propionamide], the IC50 worked out at 63 nM on TACE enzyme [1] (setting [4]), 1170 nM on MMP1 and 887 nM on MMP3. At TACE enzyme [1] (at 10 μM), the “% TACE inhibition at 10 μM” value is 97%. In addition, the negative-log IC50 (pIC50) on TACE enzyme [1] (setting [3]) was 7.20.

Turning to `Cc1cc(COc2ccc(S(=O)(=O)NC[C@@H](C(=O)NO)N3CCN(S(C)(=O)=O)CC3)cc2)c2ccccc2n1` [Example 5, (S)-N-Hydroxy-2-(4-methanesulfonylpiperazin-1-yl)-3-[4-(2-methylquinolin-4-ylmethoxy)benzenesulfonylamino]propionamide], the IC50 at TACE enzyme [1] (setting [4]) was 21 nM; on MMP1, 5100 nM; on MMP3, 3200 nM. Besides, the “% TACE inhibition at 10 μM” value on TACE enzyme [1] (at 10 μM) stood at 99%. For the same compound, the pIC50 at TACE enzyme [1] (setting [3]) is 7.68.

As to `Cc1cc(COc2ccc(S(=O)(=O)NC[C@@H](C(=O)NO)N3CCNCC3)cc2)c2ccccc2n1` [Example 13, (S)-N-Hydroxy-3-[4-(2-methylquinolin-4-ylmethoxy)benzenesulfonylamino]-2-piperazin-1-ylpropionamide], the “% TACE inhibition at 10 μM” value at TACE enzyme [1] (at 10 μM) worked out at 96%. For the same compound, the negative logarithm of the IC50 (pIC50) on TACE enzyme [1] (setting [3]) was 6.97.

As to `CS(=O)(=O)N1CCN([C@@H](CNS(=O)(=O)c2ccc(OCc3ccnc(-c4ccccc4)c3)cc2)C(=O)NO)CC1` [Example 11, (S)-N-Hydroxy-2-(4-methanesulfonylpiperazin-1-yl)-3-[4-(2-phenylpyridin-4-ylmethoxy)benzenesulfonylamino]propionamide], at TACE enzyme [1] (at 10 μM), the “% TACE inhibition at 10 μM” value is given as 93%. Besides, the pIC50 at TACE enzyme [1] (setting [3]) is 7.62.

Take `Cc1cc(COc2ccc(S(=O)(=O)NC[C@@H](C(=O)NO)N3CCN(S(=O)(=O)CC(C)C)CC3)cc2)c2ccccc2n1` [Example 24, (S)-N-hydroxy-2-[4-(2-methylpropane-1-sulfonyl)piperazin-1-yl]-3-[4-(2-methylquinolin-4-ylmethoxy)benzenesulfonylamino]propionamide]: the IC50 at MMP1 is 2060 nM; against MMP3, 1880 nM.

`CS(=O)(=O)N1CCN([C@@H](CNS(=O)(=O)c2ccc(OCc3ccc(C#N)cc3)cc2)C(=O)NO)CC1` [Example 9, (S)-3-[4-(4-Cyanobenzyloxy)benzenesulfonylamino]-N-hydroxy-2-(4-methanesulfonylpiperazin-1-yl)propionamide]: the “% TACE inhibition at 10 μM” value on TACE enzyme [1] (at 10 μM) was 100%. At TACE enzyme [1] (setting [3]), the pIC50 was 6.83.

In the case of `Cc1cc(COc2ccc(S(=O)(=O)NC[C@@H](C(=O)NO)N3CCN(Cc4ccccc4)CC3)cc2)c2ccccc2n1` [Example 17, (S)-2-(4-Benzylpiperazin-1-yl)-N-hydroxy-3-[4-(2-methylquinolin-4-ylmethoxy)benzenesulfonylamino]propionamide], the “% TACE inhibition at 10 μM” value on TACE enzyme [1] (at 10 μM) stood at 91%. The pIC50 on TACE enzyme [1] (setting [3]) is 7.21.

At ADAM10, `Cc1cc(COc2ccc(S(=O)(=O)NC[C@@H](C(=O)NO)N3CCN(Cc4ccc(C(F)(F)F)cc4)CC3)cc2)c2ccccc2n1` [Example 20, (S)-N-Hydroxy-3-[4-(2-methylquinolin-4-ylmethoxy)benzenesulfonylamino]-2-[4-(4-trifluoromethylbenzyl)piperazin-1-yl]propionamide] had a pIC50 of under 5.00. Further, the half-inhibitory concentration (IC50) is over 10000 nM at MMP9, 3940 nM at MMP1, 4780 nM against MMP3 and over 10000 nM against ADAM9.
